Read-outs that look alike come from different tables or passages of the source.
Key:
[1] = Drug binding in 10% FBS supplemented media; type: in vitro ADME, bovine; conditions: 1 μM in 10% FBS supplemented media
Source text: (§1) Since tasquinimod binds to both S100A9 and HDAC4 proteins with high affinities and since S100A9 has both an extracellular and intracellular location while HDAC4 in prostate cancer cells is in the cell nucleus, it is important to evaluate whether tasquinimod is capable of entering cells or whether it only associates with extracellular plasma membrane components. To resolve this question, an in vitro approach was taken using three human prostate cancer cells (i.e., CWR-22Rv1, LAPC-4, and LNCaP) and human umbilical vein endothelial (HUVEC) cells. When 1 μM tasquinimod is added to 10% fetal bovine serum (FBS) supplemented media, there is sufficient albumin to bind 80% of the drug so that the protein-free concentration of tasquinimod in such media is only 0.2 μM. Preliminary studies documented that even after 48 hours of exposure of HUVEC and each of the 3 prostate cancer cell lines to 1 μM at confluent cell density, there was < 15% metabolism of the parental tasquinimod drug with the major metabolite being the O-demethylated quinoline compound.

[2] = Plasma pharmacokinetics after oral gavage in nude mice bearing CWR-22Rv1 xenografts; type: in vivo, mouse; conditions: for half-life: po, 5 mg/kg
Method: To determine the PK of tasquinimod, nude mice with growing (i.e., 200-400 mm^3) CWR-22Rv1 human prostate cancer xenografts were given ^14C-radiolabeled drug at a dose of 5 mg/kg via oral gavage and the plasma and tissue (i.e., liver, kidney, and tumor) drug concentration determined. Maximum tasquinimod plasma concentration is reached within 1 hour after oral gavage of mice, Figure 1C. After this absorption phase, the plasma concentration declines bi-exponentially as the sum of two first-order processes involving tissue distribution, with the plasma concentration remaining above 1 μM for at least 24 hours, Figure 1D. These PK results support a two-compartment model composed of a central and peripheral compartment. In the absorption phase, the apparent volume of distribution is low (i.e., 0.31 L/kg) but is still more than 3 times the total volume of the blood (i.e., 0.1 L/kg) and is equal to the extracellular body fluid (i.e. 0.2 L/kg) plus the total volume of blood in a mouse (i.e., […]).
Male nude mice bearing 200-300mm^3 CWR-22Rv1 cancers were given ^14C-labeled tasquinimod at a dose of 5 mg/kg via oral gavage. At times ranging from 30 min to 24 hour, groups of 4-6 mice were anaesthetized with ketamine and 1 ml of heparinized blood collected by cardiac puncture, followed by subsequent cardiac perfusion of saline to remove blood associated drug. An aliquot of liver, kidney, and cancer was removed, weighed and then homogenized. The radioactivity in 10 μL aliquots of tissue homogenates and blood plasma was determined using a liquid scintillation counter and used to calculate the total amount of tasquinimod plus its metabolites per gram of tissue or per ml of blood. The remaining sample volume was deproteinated with acetonitrile and the radioactivity of an aliquot of the supernatant determined and the remaining supernatant lyophilized, resuspended initially with 0.1mL dimethyl sulfoxide and diluted by the addition of 0.9mL deionized water prior to injection into the HPLC. The HPLC system consisted of Waters pumps using a Waters gradient controller to deliver mobile phase at a flow rate of 1mL per minute using a Supelcosil ABZ+ C18 column that is 150mm long by 4.6mm diameter and has 5μm particle size. The metabolites were separated using a linear gradient in which the starting mobile phase was 35% acetonitrile: 65% water: 0.1% Trifluoroacetic acid (TFA) increasing to 50% acetonitrile: 50% water: 0.1%TFA over 25 minutes, and then increased rapidly to 98% acetonitrile: 2% water: 0.1%TFA and held until 33 minutes before it is returned to the initial conditions for the next run. Fractions were collected and the radioactivity determined by scintillation counting. As controls, the individual elution time of non-radiolabeled standard solutions of the various tasquinimod metabolites was determined using UV absorption at 215nm. The results were expressed as concentration based upon tissue volume, assuming 1gram wet weight equals 1ml, or normalized to tissue vascular volume.

[3] = Nadir plasma concentration after 5 days oral dosing in C57Bl/6J mice; type: in vivo, mouse; conditions: 5 mg/kg/day oral gavage, end of 5 days
Method: To determine whether this chronic 5 mg/kg/day oral dosing regimen produces similar blood concentrations in mice as obtained in human trials, intact adult male C57Bl/6J mice (n=4) were given ^14C- radiolabeled tasquinimod via oral gavage and then the plasma concentration of drug at the end of 5 days determined based upon radioactivity levels.

[4] = tested on: HUVEC and CWR-22Rv1, LAPC-4, LNCaP cells; experiment: In vitro cell metabolism in HUVEC and 3 prostate cancer cell lines; type: in vitro ADME, human; conditions: 48 hours, 1 μM, confluent cell density
Source text: as §1
For in vitro studies, cells were incubated with 1μM ^14C-labeled tasquinimod for indicated time period and then the media and cells or cell nuclei separately harvested, deproteinated with acetonitrile, and metabolites separated by HPLC and quantitated as described above.

[5] = cited from earlier work

## COc1cccc2c1c(O)c(C(=O)N(C)c1ccc(C(F)(F)F)cc1)c(=O)n2C [Tasquinimod]
[1]
  drug bound by albumin in media: 80%
  protein-free concentration in media: 0.2 µM
[2]; 5 mg/kg oral
  Cmax for protein free-tasquinimod: ~ 0.24 μM
[2]; 5 mg/kg oral gavage, nude mice
  time plasma concentration remains above 1 μM: at least 24 hours
[2]; 5 mg/kg oral tasquinimod with ketoconazole 25mg/kg/day oral
  increase in plasma elimination half-life on ketoconazole co-treatment: more than 8 fold
[2]; absorption phase, 5 mg/kg oral
  apparent volume of distribution: 0.31 L/kg
[2]; fractionated whole blood, 4hours post oral dosing
  fraction of blood drug located in the plasma and not in blood cells: > 98%
[2]; male, mouse, plasma, 5 mg/kg oral gavage, nude mice, read-out: time to maximum plasma concentration
  Tmax: ≤ 1 h
[2]; male, nude, mouse, plasma, 5 mg/kg oral, read-out: half-life of α-distribution phase (converted)
  half-life: 3.2 h
[2]; male, nude, mouse, plasma, 5 mg/kg oral, read-out: β-elimination phase half-life
  half-life: > 10 h
[2]; male, nude, mouse, plasma, 5 mg/kg oral, read-out: total plasma Cmax
  Cmax: ~12 µM
[3]
  nadir plasma concentration: 1.08 ± 0.21 µM
[4]
  metabolism of the parental drug: < 15%
[5]; chronic daily oral dosing, 1 mg (0.5-1 mg/day), clinical trials
  blood (plasma) level maintained: ~ 0.5 μM
[5]; clinical trials
  plasma half-life: 40 ± 16 h
  plasma levels at which systemic anti-cancer potency occurs: 500 to 1000 nM
[5]; daily dose as liquid or gelatin capsule
  bioavailability and oral absorption: excellent
